Measured values: the kinase profiling compilation of Christmann-Franck et al. (2016)

Key:
Test in all cases: split-luciferase competition binding
PKN1 (human) = PKN1 (human) (UniProt Q16512); conditions: compound 10.0 µM
PRKCD (human) = PRKCD (human) (UniProt Q05655); conditions: compound 10.0 µM
PRKCI (human) = PRKCI (human) (UniProt P41743); conditions: compound 10.0 µM
AURKB (human) = AURKB (human) (UniProt Q96GD4); conditions: compound 10.0 µM
RPS6KA2 KD1 (human) = RPS6KA2 KD1 (human) (UniProt Q15349); conditions: compound 10.0 µM
PRKCQ (human) = PRKCQ (human) (UniProt Q04759); conditions: compound 10.0 µM
PRKCQ (human), sequence (Q04759 whole entry, looked up): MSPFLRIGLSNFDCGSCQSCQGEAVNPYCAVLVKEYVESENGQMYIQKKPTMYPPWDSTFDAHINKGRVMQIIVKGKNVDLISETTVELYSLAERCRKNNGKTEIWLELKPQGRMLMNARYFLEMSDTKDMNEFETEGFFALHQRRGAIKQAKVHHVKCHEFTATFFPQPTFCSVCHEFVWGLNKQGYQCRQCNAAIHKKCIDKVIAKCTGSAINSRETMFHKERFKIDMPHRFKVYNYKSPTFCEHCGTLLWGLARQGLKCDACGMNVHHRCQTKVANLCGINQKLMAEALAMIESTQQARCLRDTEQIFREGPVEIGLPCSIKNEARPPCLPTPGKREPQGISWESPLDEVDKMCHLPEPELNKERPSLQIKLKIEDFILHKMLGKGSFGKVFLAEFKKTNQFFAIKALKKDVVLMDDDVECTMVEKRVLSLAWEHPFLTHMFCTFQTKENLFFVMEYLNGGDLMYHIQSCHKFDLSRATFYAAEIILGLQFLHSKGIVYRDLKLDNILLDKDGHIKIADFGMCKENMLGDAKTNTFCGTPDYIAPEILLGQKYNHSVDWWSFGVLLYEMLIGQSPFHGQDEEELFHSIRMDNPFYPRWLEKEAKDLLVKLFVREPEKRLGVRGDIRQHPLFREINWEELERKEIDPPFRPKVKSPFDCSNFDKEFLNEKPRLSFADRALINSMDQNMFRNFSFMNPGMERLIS

STK32B (human) = STK32B (human) (UniProt Q9NY57); conditions: compound 10.0 µM
SGK3 (human) = SGK3 (human) (UniProt Q96BR1); conditions: compound 10.0 µM
RPS6KA6 KD1 (human) = RPS6KA6 KD1 (human) (UniProt Q9UK32); conditions: compound 10.0 µM
RPS6KA1 KD1 (human) = RPS6KA1 KD1 (human) (UniProt Q15418); conditions: compound 10.0 µM
RPS6KA4 KD1 (human) = RPS6KA4 KD1 (human) (UniProt O75676); conditions: compound 10.0 µM
AKT3 (human) = AKT3 (human) (UniProt Q9Y243); conditions: compound 10.0 µM
PRKX (human) = PRKX (human) (UniProt P51817); conditions: compound 10.0 µM
DMPK (human) = DMPK (human) (UniProt Q09013); conditions: compound 10.0 µM
DMPK (human), sequence (Q09013 whole entry, looked up): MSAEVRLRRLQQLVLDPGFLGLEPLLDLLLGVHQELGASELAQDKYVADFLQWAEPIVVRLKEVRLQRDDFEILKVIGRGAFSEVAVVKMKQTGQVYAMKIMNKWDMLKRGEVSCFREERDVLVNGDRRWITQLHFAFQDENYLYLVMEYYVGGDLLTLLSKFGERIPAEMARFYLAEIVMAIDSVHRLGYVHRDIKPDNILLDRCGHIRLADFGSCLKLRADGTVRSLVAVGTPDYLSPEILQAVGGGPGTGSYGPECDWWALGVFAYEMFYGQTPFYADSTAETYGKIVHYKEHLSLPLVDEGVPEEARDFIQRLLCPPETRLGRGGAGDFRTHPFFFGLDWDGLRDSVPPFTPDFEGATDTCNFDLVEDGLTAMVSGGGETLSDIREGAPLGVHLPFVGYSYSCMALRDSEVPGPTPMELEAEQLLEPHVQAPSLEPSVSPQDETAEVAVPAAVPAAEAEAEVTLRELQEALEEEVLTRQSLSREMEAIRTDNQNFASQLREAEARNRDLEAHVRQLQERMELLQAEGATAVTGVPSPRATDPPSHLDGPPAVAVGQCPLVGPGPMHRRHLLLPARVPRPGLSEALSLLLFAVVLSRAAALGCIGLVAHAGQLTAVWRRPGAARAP

RPS6KA5 KD1 (human) = RPS6KA5 KD1 (human) (UniProt O75582); conditions: compound 10.0 µM
AURKA (human) = AURKA (human) (UniProt O14965); conditions: compound 10.0 µM
AURKA (human), sequence (O14965 whole entry, looked up): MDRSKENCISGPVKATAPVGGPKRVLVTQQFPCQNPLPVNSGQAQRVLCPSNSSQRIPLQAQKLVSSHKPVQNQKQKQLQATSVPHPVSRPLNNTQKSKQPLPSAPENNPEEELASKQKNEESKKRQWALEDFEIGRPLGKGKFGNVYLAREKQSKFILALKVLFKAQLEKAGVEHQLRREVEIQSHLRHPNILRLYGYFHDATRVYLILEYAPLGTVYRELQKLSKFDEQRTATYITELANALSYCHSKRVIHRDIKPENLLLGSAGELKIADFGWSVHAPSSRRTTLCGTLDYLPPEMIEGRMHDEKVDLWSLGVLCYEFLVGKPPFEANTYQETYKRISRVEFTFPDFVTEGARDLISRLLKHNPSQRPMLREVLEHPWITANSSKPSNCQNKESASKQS

RPS6KA3 KD1 (human) = RPS6KA3 KD1 (human) (UniProt P51812); conditions: compound 10.0 µM
RPS6KA3 KD1 (human), sequence (P51812 whole entry, looked up): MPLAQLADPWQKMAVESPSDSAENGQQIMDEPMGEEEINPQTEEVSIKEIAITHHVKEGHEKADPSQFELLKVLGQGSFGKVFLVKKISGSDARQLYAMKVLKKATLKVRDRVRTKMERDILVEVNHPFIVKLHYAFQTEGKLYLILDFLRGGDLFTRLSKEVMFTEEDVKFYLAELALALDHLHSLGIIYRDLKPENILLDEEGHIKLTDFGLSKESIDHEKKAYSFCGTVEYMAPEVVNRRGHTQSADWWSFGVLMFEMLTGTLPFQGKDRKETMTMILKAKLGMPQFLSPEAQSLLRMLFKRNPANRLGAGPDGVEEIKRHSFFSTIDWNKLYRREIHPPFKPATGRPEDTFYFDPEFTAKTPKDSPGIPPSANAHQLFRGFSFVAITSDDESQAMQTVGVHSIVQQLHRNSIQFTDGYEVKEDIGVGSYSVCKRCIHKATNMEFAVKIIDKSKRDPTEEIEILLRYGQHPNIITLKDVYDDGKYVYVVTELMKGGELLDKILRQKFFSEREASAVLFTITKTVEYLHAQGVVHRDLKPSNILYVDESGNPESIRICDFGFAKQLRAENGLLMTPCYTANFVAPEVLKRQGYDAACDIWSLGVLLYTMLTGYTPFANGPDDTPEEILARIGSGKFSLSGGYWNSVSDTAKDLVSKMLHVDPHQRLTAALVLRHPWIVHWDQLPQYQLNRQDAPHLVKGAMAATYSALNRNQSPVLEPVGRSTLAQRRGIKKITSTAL

PDPK1 (human) = PDPK1 (human) (UniProt O15530); conditions: compound 10.0 µM
AURKC (human) = AURKC (human) (UniProt Q9UQB9); conditions: compound 10.0 µM
PRKCG (human) = PRKCG (human) (UniProt P05129); conditions: compound 10.0 µM
SGK2 (human) = SGK2 (human) (UniProt Q9HBY8); conditions: compound 10.0 µM
SGK2 (human), sequence (Q9HBY8 whole entry, looked up): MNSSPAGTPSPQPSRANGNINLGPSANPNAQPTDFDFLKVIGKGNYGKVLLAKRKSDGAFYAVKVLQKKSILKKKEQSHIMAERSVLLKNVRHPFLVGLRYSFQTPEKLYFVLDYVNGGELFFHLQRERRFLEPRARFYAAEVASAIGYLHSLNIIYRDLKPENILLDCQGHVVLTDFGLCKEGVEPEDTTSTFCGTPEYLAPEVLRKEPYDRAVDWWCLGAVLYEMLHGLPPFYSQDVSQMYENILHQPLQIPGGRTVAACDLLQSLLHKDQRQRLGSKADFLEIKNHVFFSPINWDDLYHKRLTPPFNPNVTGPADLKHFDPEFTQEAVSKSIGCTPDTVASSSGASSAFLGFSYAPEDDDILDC

PRKCE (human) = PRKCE (human) (UniProt Q02156); conditions: compound 10.0 µM
PRKCE (human), sequence (Q02156 whole entry, looked up): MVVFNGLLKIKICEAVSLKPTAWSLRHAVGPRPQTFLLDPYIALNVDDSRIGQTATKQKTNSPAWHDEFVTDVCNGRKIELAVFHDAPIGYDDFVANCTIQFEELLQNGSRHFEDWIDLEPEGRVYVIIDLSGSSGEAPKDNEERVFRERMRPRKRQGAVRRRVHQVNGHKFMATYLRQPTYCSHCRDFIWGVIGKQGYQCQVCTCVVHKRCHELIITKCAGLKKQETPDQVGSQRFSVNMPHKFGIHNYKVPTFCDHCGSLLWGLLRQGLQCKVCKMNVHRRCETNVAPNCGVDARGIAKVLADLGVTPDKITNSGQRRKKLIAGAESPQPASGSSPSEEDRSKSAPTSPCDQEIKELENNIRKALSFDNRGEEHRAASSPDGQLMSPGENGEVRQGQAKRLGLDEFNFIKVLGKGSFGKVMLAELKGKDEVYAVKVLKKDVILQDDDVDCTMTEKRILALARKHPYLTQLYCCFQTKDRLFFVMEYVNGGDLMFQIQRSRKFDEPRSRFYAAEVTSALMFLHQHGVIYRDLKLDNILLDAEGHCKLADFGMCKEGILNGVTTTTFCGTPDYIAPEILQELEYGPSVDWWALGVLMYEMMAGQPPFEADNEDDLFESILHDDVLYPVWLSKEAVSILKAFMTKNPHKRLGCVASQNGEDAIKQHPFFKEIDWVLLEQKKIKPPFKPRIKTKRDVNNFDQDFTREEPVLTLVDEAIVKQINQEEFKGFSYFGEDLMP

AKT1 (human) = AKT1 (human) (UniProt P31749); conditions: compound 10.0 µM
AKT1 (human), sequence (P31749 whole entry, looked up): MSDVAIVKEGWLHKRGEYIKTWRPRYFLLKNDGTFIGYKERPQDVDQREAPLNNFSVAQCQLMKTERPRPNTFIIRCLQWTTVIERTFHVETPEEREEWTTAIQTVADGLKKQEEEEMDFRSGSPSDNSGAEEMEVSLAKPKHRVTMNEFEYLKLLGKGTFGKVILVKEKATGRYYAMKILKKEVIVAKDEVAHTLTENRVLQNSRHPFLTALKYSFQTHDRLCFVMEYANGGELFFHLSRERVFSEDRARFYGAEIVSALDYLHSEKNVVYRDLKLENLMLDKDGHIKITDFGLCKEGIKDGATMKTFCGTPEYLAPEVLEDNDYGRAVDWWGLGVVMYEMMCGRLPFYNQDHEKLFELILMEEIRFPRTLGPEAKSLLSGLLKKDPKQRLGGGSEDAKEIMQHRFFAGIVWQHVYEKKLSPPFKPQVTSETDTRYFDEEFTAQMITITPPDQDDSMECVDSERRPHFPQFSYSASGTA

PRKCH (human) = PRKCH (human) (UniProt P24723); conditions: compound 10.0 µM
AKT2 (human) = AKT2 (human) (UniProt P31751); conditions: compound 10.0 µM
PRKACB (human) = PRKACB (human) (UniProt P22694); conditions: compound 10.0 µM
PRKACA (mouse) = conditions: compound 10.0 µM; accession and sequence are those of the human protein

PRKCD (human), sequence (Q05655 whole entry, looked up): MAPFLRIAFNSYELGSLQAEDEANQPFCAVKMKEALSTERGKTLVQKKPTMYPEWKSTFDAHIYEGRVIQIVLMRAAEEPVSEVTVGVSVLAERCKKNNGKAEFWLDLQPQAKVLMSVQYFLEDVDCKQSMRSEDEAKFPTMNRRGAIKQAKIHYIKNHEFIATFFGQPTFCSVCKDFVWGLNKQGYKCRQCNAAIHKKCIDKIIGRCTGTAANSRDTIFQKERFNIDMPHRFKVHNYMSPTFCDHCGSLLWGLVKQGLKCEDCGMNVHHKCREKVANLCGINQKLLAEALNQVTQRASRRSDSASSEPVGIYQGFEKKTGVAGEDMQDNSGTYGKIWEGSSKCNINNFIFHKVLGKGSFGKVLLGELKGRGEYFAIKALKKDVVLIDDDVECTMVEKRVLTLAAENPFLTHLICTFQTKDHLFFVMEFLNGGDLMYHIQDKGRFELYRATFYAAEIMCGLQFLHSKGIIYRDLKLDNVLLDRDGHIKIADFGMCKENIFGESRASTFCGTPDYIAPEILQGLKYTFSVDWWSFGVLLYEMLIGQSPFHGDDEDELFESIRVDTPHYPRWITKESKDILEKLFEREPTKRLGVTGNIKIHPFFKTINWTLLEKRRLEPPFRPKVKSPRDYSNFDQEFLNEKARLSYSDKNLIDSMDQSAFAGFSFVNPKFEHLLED

SMILES	inhibition (PKN1 (human))	inhibition (PRKCD (human))	inhibition (PRKCI (human))	inhibition (AURKB (human))	inhibition (RPS6KA2 KD1 (human))	inhibition (PRKCQ (human))	inhibition (STK32B (human))	inhibition (SGK3 (human))	inhibition (RPS6KA6 KD1 (human))	inhibition (RPS6KA1 KD1 (human))	inhibition (RPS6KA4 KD1 (human))	inhibition (AKT3 (human))	inhibition (PRKX (human))	inhibition (DMPK (human))	inhibition (RPS6KA5 KD1 (human))	inhibition (AURKA (human))	inhibition (RPS6KA3 KD1 (human))	inhibition (PDPK1 (human))	inhibition (AURKC (human))	inhibition (PRKCG (human))	further results
COc1cc(CC2C(=O)OC[C@@H]2Cc2ccc(OC)c(OC)c2)ccc1O (some centres not stated)	0%	0%	0%	0%	0%	0%	15%	1%	12%	2%	0%	0%	0%	0%	0%	11%	6%	0%	6%	0%	inhibition (SGK2 (human)): 7%; inhibition (PRKCE (human)): 0%; inhibition (AKT1 (human)): 0%; inhibition (PRKCH (human)): 0%; inhibition (AKT2 (human)): 0%; inhibition (PRKACB (human)): 1%; inhibition (PRKACA (mouse)): 0%
O=C(NC(NC(=S)Nc1ccc(F)c([N+](=O)[O-])c1)C(Cl)(Cl)Cl)C(c1ccccc1)c1ccccc1 (configuration not stated)	0%	0%	0%	0%	2%	0%	8%	0%	4%	2%	0%	0%	4%	0%	2%	0%	0%	0%	3%	15%	inhibition (SGK2 (human)): 3%; inhibition (PRKCE (human)): 16%; inhibition (AKT1 (human)): 5%; inhibition (PRKCH (human)): 7%; inhibition (AKT2 (human)): 0%; inhibition (PRKACB (human)): 7%; inhibition (PRKACA (mouse)): 0%
O=C1c2ccccc2-c2n[nH]c3cccc1c23	4%	0%	0%	6%	0%	0%	0%	0%	0%	0%	0%	0%	0%	0%	0%	0%	0%	0%	0%	0%	inhibition (SGK2 (human)): 2%; inhibition (PRKCE (human)): 0%; inhibition (AKT1 (human)): 0%; inhibition (PRKCH (human)): 0%; inhibition (AKT2 (human)): 0%; inhibition (PRKACB (human)): 0%; inhibition (PRKACA (mouse)): 0%
C=CC(=O)c1ccc2ccccc2c1	2%	0%	0%	0%	0%	0%	0%	0%	0%	0%	0%	0%	0%	0%	0%	0%	0%	0%	0%	0%	inhibition (SGK2 (human)): 0%; inhibition (PRKCE (human)): 0%; inhibition (AKT1 (human)): 0%; inhibition (PRKCH (human)): 0%; inhibition (AKT2 (human)): 0%; inhibition (PRKACB (human)): 0%; inhibition (PRKACA (mouse)): 0%
Fc1ccc(Cl)cc1-c1nc(Nc2ccncc2)c2nccnc2n1	0%	10%	8%	12%	5%	51%	15%	14%	13%	18%	8%	35%	12%	18%	24%	0%	12%	12%	8%	10%	inhibition (SGK2 (human)): 22%; inhibition (PRKCE (human)): 27%; inhibition (AKT1 (human)): 39%; inhibition (PRKCH (human)): 43%; inhibition (AKT2 (human)): 26%; inhibition (PRKACB (human)): 19%; inhibition (PRKACA (mouse)): 21%
COc1ccc(Cl)cc1NC(=O)Nc1cc(C)nc2ccccc12	0%	0%	0%	14%	0%	0%	0%	0%	0%	0%	0%	0%	1%	6%	3%	0%	0%	0%	16%	0%	inhibition (SGK2 (human)): 0%; inhibition (PRKCE (human)): 0%; inhibition (AKT1 (human)): 0%; inhibition (PRKCH (human)): 0%; inhibition (AKT2 (human)): 0%; inhibition (PRKACB (human)): 0%; inhibition (PRKACA (mouse)): 5%
